Reference: ChEMBL document CHEMBL3352091, “Natural product-based design, synthesis and biological evaluation of anthra[2,1-d]thiazole-6,11-dione derivatives from rhein as novel antitumour agents” (Eur J Med Chem, 2014)

Tests used:
A549 [1] = assay: Antitumor activity against human A549 cells after 3 days by SRB assay; format: functional, cell-based; conditions: A549, 72 h
HeLa [2] = assay: Antitumor activity against human HeLa cells after 3 days by SRB assay; format: functional, cell-based; conditions: 72 h
A549 [3] = assay: Potency index, ratio of IC50 for rhein to IC50 for test compound against human A549 cells after 3 days by SRB assay; format: functional
HeLa [4] = assay: Potency index, ratio of IC50 for rhein to IC50 for test compound against human HeLa cells after 3 days by SRB assay; format: functional

Row | SMILES | IC50 (A549 [1]) | IC50 (HeLa [2]) | Ratio IC50 (A549 [3]) | Ratio IC50 (HeLa [4])
1 | O=C1c2c(O)cccc2C(=O)c2c1c(O)cc1nc(N3CCCCC3CCO)sc21 (centres undefined) | 19.6 µM | 16.7 µM |  | 
2 | O=C1c2c(O)cccc2C(=O)c2c1c(O)cc1nc(N3CCCCCC3)sc21 | 39.4 µM | 41 µM |  | 
3 | O=C1c2c(O)cccc2C(=O)c2c1c(O)cc1nc(N3CCCC3)sc21 | 148 µM | 44.8 µM |  | 
4 | O=C(O)c1cc(O)c2c(c1)C(=O)c1cccc(O)c1C2=O [RHEIN] | 95.8 µM | 92.2 µM |  | 
5 | O=C1c2c(O)cccc2C(=O)c2c1c(O)cc1nc(N3CCOCC3)sc21 | 33.4 µM | 30.3 µM |  | 
6 | CC1CCN(c2nc3cc(O)c4c(c3s2)C(=O)c2cccc(O)c2C4=O)CC1 | 66 µM | 60.4 µM |  | 
7 | CCN(CC)c1nc2cc(O)c3c(c2s1)C(=O)c1cccc(O)c1C3=O | 108 µM | 86.7 µM |  | 
8 | O=CN1CCCN(c2nc3cc(O)c4c(c3s2)C(=O)c2cccc(O)c2C4=O)CC1 | 15.2 µM | 19.7 µM |  | 
9 | O=C1c2c(O)cccc2C(=O)c2c1c(O)cc1nc(N3CCCC(O)C3)sc21 (centres undefined) | 21.1 µM | 26.9 µM |  | 
10 | CN(C)C1CCN(c2nc3cc(O)c4c(c3s2)C(=O)c2cccc(O)c2C4=O)CC1 | 6.3 µM | 11.8 µM |  | 
11 | CN(CC(O)CO)c1nc2cc(O)c3c(c2s1)C(=O)c1cccc(O)c1C3=O (centres undefined) | 30.4 µM | 23.2 µM |  | 
12 | CN(CCO)c1nc2cc(O)c3c(c2s1)C(=O)c1cccc(O)c1C3=O | 45.9 µM | 30.6 µM |  | 
13 | O=C1c2c(O)cccc2C(=O)c2c1c(O)cc1nc(N3CCCCC3)sc21 | > 100 µM | 55.8 µM |  | 

More lines, main results first:

Row | IC50 (A549 [1]) | IC50 (HeLa [2]) | SMILES | Ratio IC50 (A549 [3]) | Ratio IC50 (HeLa [4])
14 | 70.3 µM | 81.1 µM | O=C1c2c(O)cccc2C(=O)c2c1c(O)cc1nc(N3CCN(CCN4CCCC4)CC3)sc21 |  | 
15 | > 100 µM | > 100 µM | CC(C)N(CCN1CCN(c2nc3cc(O)c4c(c3s2)C(=O)c2cccc(O)c2C4=O)CC1)C(C)C |  | 
16 | 65.7 µM | 58.1 µM | O=C1c2c(O)cccc2C(=O)c2c1c(O)cc1nc(N3CCN(C4CC4)CC3)sc21 |  | 
17 | > 100 µM | > 100 µM | CCN(CC)CCN1CCN(c2nc3cc(O)c4c(c3s2)C(=O)c2cccc(O)c2C4=O)CC1 |  | 
18 | 20.2 µM | 27.4 µM | CN1CCN(c2nc3cc(O)c4c(c3s2)C(=O)c2cccc(O)c2C4=O)CC1 |  | 
19 | 24.2 µM | 80.1 µM | CN1CCN(CCN2CCN(c3nc4cc(O)c5c(c4s3)C(=O)c3cccc(O)c3C5=O)CC2)CC1 |  | 
20 | > 100 µM | 118 µM | CC(C)N(c1nc2cc(O)c3c(c2s1)C(=O)c1cccc(O)c1C3=O)C(C)C |  | 
21 | 32.8 µM | > 100 µM | CN(C)CCN1CCN(c2nc3cc(O)c4c(c3s2)C(=O)c2cccc(O)c2C4=O)CC1 |  | 
22 | 5.4 µM | 4.3 µM | CCN1CCN(c2nc3cc(O)c4c(c3s2)C(=O)c2cccc(O)c2C4=O)CC1 | 30 | 30
23 | 57.1 µM | > 100 µM | CCCCN(CCCC)CCN1CCN(c2nc3cc(O)c4c(c3s2)C(=O)c2cccc(O)c2C4=O)CC1 |  | 
24 | 6.5 µM | 4.5 µM | O=C1c2c(O)cccc2C(=O)c2c1c(O)cc1nc(N3CCN(CCO)CC3)sc21 |  | 
25 | 46.4 µM | 86.9 µM | O=C1c2c(O)cccc2C(=O)c2c1c(O)cc1nc(N3CCN(CCN4CCCCC4)CC3)sc21 |  | 
26 | 15 µM | 14.8 µM | CC(C)N1CCN(c2nc3cc(O)c4c(c3s2)C(=O)c2cccc(O)c2C4=O)CC1 |  | 
27 | 54.8 µM | 68.4 µM | CCOC(=O)N1CCN(c2nc3cc(O)c4c(c3s2)C(=O)c2cccc(O)c2C4=O)CC1 |  | 
28 | 38.2 µM | 82.1 µM | CC1CCN(CCN2CCN(c3nc4cc(O)c5c(c4s3)C(=O)c3cccc(O)c3C5=O)CC2)CC1 |  | 
29 | 23.4 µM | 71.3 µM | CCN1CCN(CCN2CCN(c3nc4cc(O)c5c(c4s3)C(=O)c3cccc(O)c3C5=O)CC2)CC1 |  | 
30 | > 100 µM | > 100 µM | O=C1c2c(O)cccc2C(=O)c2c1c(O)cc1nc(N3CCN(CCN4CCOCC4)CC3)sc21 |  | 
31 | 54 µM | > 100 µM | CC(C)N1CCN(CCN2CCN(c3nc4cc(O)c5c(c4s3)C(=O)c3cccc(O)c3C5=O)CC2)CC1 |  | 
